{"source": "patent US9669051B2", "about": "“Dietary fiber compositions with metformin, sitagliptin, or a combination thereof for the treatment of metabolic disease” (Inovobiologic Inc., priority 2012, dated 2017)", "key": {"Zucker FA/FA Rat Model [1]": {"system": "Zucker FA/FA Rat Model", "experiment": "Example 7: hemoglobin glycosylation (HbA1c)", "type": "in vivo", "method": "The extent of hemoglobin glycosylation was determined using a clinical analyzer (e.g., Bayer DCA2000). Blood samples for analysis were collected via tail nick."}, "Zucker FA/FA Rat Model [2]": {"system": "Zucker FA/FA Rat Model", "experiment": "Example 7: lipid determinations", "type": "in vivo", "conditions": "finding in words, with reference to the cellulose control; listed as JANUVIA alone", "experimental": "(§1) A blood sample was collected via retroorbital bleed (under isoflurane anesthesia) during the takedown phase. A portion of this sample was tested for lipid concentrations (total, LDL, and HDL cholesterol and triglycerides) using an analyzer (e.g., Polymer Technology Systems CardioChek PA). Plasma was separated by centrifugation and flash-frozen for DPPIV activity determination. The remainder was prepared for comprehensive clinical chemistry analysis."}, "Zucker FA/FA Rat Model [3]": {"system": "Zucker FA/FA Rat Model", "experiment": "Example 7: fasted oral glucose tolerance test (OGTT), glucose and serum insulin", "type": "in vivo", "conditions": "week 6, 16 h fasted", "excerpt": "The remainder of the sample was allowed to clot, and centrifuged to separate serum. Serum samples were frozen for insulin analysis."}, "Zucker FA/FA Rat Model [4]": {"system": "Zucker FA/FA Rat Model", "experiment": "Example 7: body composition by dual-energy X-ray absorptiometry (DEXA)", "type": "in vivo", "experimental": "Body composition was measured using dual-energy X-ray absorptiometry (DEXA) of the carcasses at the end of the study (i.e., after a limited necropsy for histopathology samples). The primary endpoints were fat mass, lean mass and bone mineral density. Tissue composition (i.e., % body fat) and fat free mass were also reported, but the information on these measurements was redundant with other measures."}, "Zucker FA/FA Rat Model [5]": {"system": "Zucker FA/FA Rat Model", "experiment": "Example 7: body weight and food consumption", "type": "in vivo", "experimental": "44 young adult (9 week old) male rats (Zucker ZDF/Crl-Lepr^fa/fa), were obtained from Charles River Laboratories, Kingston, N.Y. […] The rats were housed in cages which conformed to size standards in Guide for the Care and Use of Laboratory Animals (Nat'l Res. Council, 1996). Bedding was changed at least twice per week. The animals were maintained at a temperature range of 18-22° C., humidity 44-68%, and a photoperiod of 12 hour light/dark cycle. The rats were acclimated for 4 days prior to the start of the study. Each animal was given a sequential number and was uniquely identified with a stainless steel ear tag or other appropriate, permanent method. Morbidity and mortality checks were carried out twice daily during the study. The animals were randomly assigned to one of four groups: (1) Control 5% cellulose fiber/chow [C]; (2) 5% PGX/chow [PGX]; […] Filtered tap water was available ad libitum. The test diets were nearly isoenergetic (PGX diet provided 3.98 kcal/g and cellulose diet provided 3.90 kcal/g). […] Sitagliptin was administered in the morning, with samples and data collected after treatment."}, "Zucker FA/FA Rat Model [6]": {"system": "Zucker FA/FA Rat Model", "experiment": "Example 7: necropsy histopathology of liver, kidney and pancreas", "type": "in vivo", "conditions": "week 7 necropsy", "experimental": "Rats were fasted overnight and given their regular sitagliptin treatment in the morning. Following the in-life procedures, rats were anesthetized with isoflurane, and a blood sample was collected via cardiac puncture. No peptidase inhibitors were used. Following sample collection, a limited necropsy was performed. A section of ileum (approximately one inch, collected one inch rostral to the cecum) was rinsed in chilled saline and flash frozen; this sample was analyzed for DPPIV mRNA. One kidney was flash-frozen for DPPIV mRNA analysis; one liver lobe was flash frozen for DPPIV activity and mRNA analysis. The pancreas (collected as a pancreatic pluck, with associated tissue including the remainder of the intestine), one liver lobe and one kidney were post-fixed for staining with hematoxylin and eosin. One liver lobe was snap-frozen for staining with Sudan Black. The tissue samples were forwarded to Histo-Scientific Research Laboratories Inc. (Mount Jackson, Va.) for histological processing and for pathological evaluation by a board-certified pathologist. The pathology analysis was based on the gross and microscopic evaluation of the liver (two lobes), right kidney and pancreas from 39 male rats."}, "Zucker FA/FA Rat Model [7]": {"system": "Zucker FA/FA Rat Model", "experiment": "Example 7: clinical chemistry of terminal blood sample", "type": "in vivo", "experimental": "as §1"}, "Zucker FA/FA Rat Model [8]": {"system": "Zucker FA/FA Rat Model", "experiment": "Example 7: non-fasted and 16 h fasted blood glucose", "type": "in vivo", "method": "Glucose concentrations were determined using a hand-held glucose meter (e.g., Bayer Asencia Elite). Blood was collected via tail nick following sitagliptin administration; one sample was collected when food was available for the previous 24 hours (non-fasted), and one sample was collected on another day when food was not available overnight (16 h fasted)."}, "[9]": {"conditions": "in words; cited from earlier work"}, "[10]": {"conditions": "finding in words, with reference to the cellulose control, listed as JANUVIA alone"}, "[11]": {"conditions": "finding in words, with reference to the cellulose control"}}}
{"smiles": "N[C@@H](CC(=O)N1CCn2c(nnc2C(F)(F)F)C1)Cc1cc(F)c(F)cc1F", "note": "[Cellulose-JANUVIA, (R)-4-oxo-4-[3-(trifluoromethyl)-5,6-dihydro[1,2,4]triazolo[4,3-a]pyrazin-7(8H)-yl]-1-(2,4,5-trifluorophenyl)butan-2-amine]", "values": [{"measurement": "Hemoglobin glycosylation", "setting": "Zucker FA/FA Rat Model [1]; Baseline", "result": "4.4 ± 0.1", "unit": "%"}, {"measurement": "Hemoglobin glycosylation", "setting": "Zucker FA/FA Rat Model [1]; Week 6", "result": "6.8 ± 0.4", "unit": "%"}, {"measurement": "total cholesterol (week 7)", "setting": "Zucker FA/FA Rat Model [2]", "result": "not effective to lower blood cholesterol"}, {"measurement": "OGTT serum insulin Baseline", "setting": "Zucker FA/FA Rat Model [3]; before glucose", "result": "6.6 ± 1.1", "unit": "ng/mL"}, {"measurement": "OGTT blood glucose Baseline", "setting": "Zucker FA/FA Rat Model [3]; before glucose 1 g/kg PO", "result": "331 ± 16.4", "unit": "mg/dL"}, {"measurement": "OGTT serum insulin AUC(0-120), baseline-subt", "setting": "Zucker FA/FA Rat Model [3]; glucose 1 g/kg PO", "result": "-3.0 ± 22.7", "unit": "ng·h/dL"}, {"measurement": "Fat free mass", "setting": "Zucker FA/FA Rat Model [4]; DEXA at end of study", "result": "133.0 ± 5.6", "unit": "g"}, {"measurement": "Tissue composition (% fat)", "setting": "Zucker FA/FA Rat Model [4]; DEXA at end of study", "result": "63.3 ± 0.9", "unit": "% fat"}, {"measurement": "Lean Mass (terminal)", "setting": "Zucker FA/FA Rat Model [4]; [10]", "result": "did not show an effect on lean body mass"}, {"measurement": "Baseline body weight", "setting": "Zucker FA/FA Rat Model [5]; Baseline", "result": "297.9 ± 3.7", "unit": "g"}, {"measurement": "Mean food consumption", "setting": "Zucker FA/FA Rat Model [5]; averaged for each rat over the study", "result": "22.9 ± 0.7", "unit": "g/day"}, {"measurement": "Week 7 body weight", "setting": "Zucker FA/FA Rat Model [5]; week 7", "result": "411.0 ± 16.1", "unit": "g"}, {"measurement": "Kidney: degeneration/regeneration, tubules, group incidence", "setting": "Zucker FA/FA Rat Model [6]; animals affected/examined", "result": "9/9"}, {"measurement": "Kidney: dilatation, tubules, group incidence", "setting": "Zucker FA/FA Rat Model [6]; animals affected/examined", "result": "9/9"}, {"measurement": "Kidney: dilation, renal pelvis, group incidence", "setting": "Zucker FA/FA Rat Model [6]; animals affected/examined", "result": "9/9"}, {"measurement": "Kidney: inflammation, renal pelvis, group incidence", "setting": "Zucker FA/FA Rat Model [6]; animals affected/examined", "result": "2/9"}, {"measurement": "Kidney: mesangial expansion, group incidence", "setting": "Zucker FA/FA Rat Model [6]; animals affected/examined", "result": "9/9"}, {"measurement": "Kidney: mineralization, renal pelvis, group incidence", "setting": "Zucker FA/FA Rat Model [6]; animals affected/examined", "result": "2/9"}, {"measurement": "Liver: Sudan black positive hepatocytes, group incidence", "setting": "Zucker FA/FA Rat Model [6]; animals affected/examined", "result": "9/9"}, {"measurement": "Liver: cystic hepatocytes degeneration with fibrosis, group incidence", "setting": "Zucker FA/FA Rat Model [6]; animals affected/examined", "result": "1/9"}, {"measurement": "Liver: hepatic focal infarction, group incidence", "setting": "Zucker FA/FA Rat Model [6]; animals affected/examined", "result": "1/9"}, {"measurement": "Liver: vacuolation, hepatocytes, macrovesicular, group incidence", "setting": "Zucker FA/FA Rat Model [6]; animals affected/examined", "result": "7/9"}, {"measurement": "Liver: vacuolation, hepatocytes, microvesicular, group incidence", "setting": "Zucker FA/FA Rat Model [6]; animals affected/examined", "result": "9/9"}, {"measurement": "Pancreas: fibrosis, islets, group incidence", "setting": "Zucker FA/FA Rat Model [6]; animals affected/examined", "result": "9/9"}, {"measurement": "Pancreas: hemorrhage/hemosiderin, islets, group incidence", "setting": "Zucker FA/FA Rat Model [6]; animals affected/examined", "result": "9/9"}, {"measurement": "Pancreas: hypertrophy, islets, group incidence", "setting": "Zucker FA/FA Rat Model [6]; animals affected/examined", "result": "9/9"}, {"measurement": "Pancreas: islet cell degeneration, group incidence", "setting": "Zucker FA/FA Rat Model [6]; animals affected/examined", "result": "9/9"}, {"measurement": "Pancreas: mononuclear cell infiltrate, islets, group incidence", "setting": "Zucker FA/FA Rat Model [6]; animals affected/examined", "result": "9/9"}, {"measurement": "Pancreas: percent of islet area containing positive insulin positive cells", "setting": "Zucker FA/FA Rat Model [6]; group average", "result": 40, "unit": "%"}, {"measurement": "Liver: Sudan black positive hepatocytes, group average score", "setting": "Zucker FA/FA Rat Model [6]; score 0-5", "result": 2.8}, {"measurement": "Kidney: degeneration/regeneration, tubules, group average score", "setting": "Zucker FA/FA Rat Model [6]; severity score 0-5", "result": 2.3}, {"measurement": "Kidney: dilatation, tubules, group average score", "setting": "Zucker FA/FA Rat Model [6]; severity score 0-5", "result": 2.8}, {"measurement": "Kidney: dilation, renal pelvis, group average score", "setting": "Zucker FA/FA Rat Model [6]; severity score 0-5", "result": 2.3}, {"measurement": "Kidney: inflammation, renal pelvis, group average score", "setting": "Zucker FA/FA Rat Model [6]; severity score 0-5", "result": 0.8}, {"measurement": "Kidney: mesangial expansion, group average score", "setting": "Zucker FA/FA Rat Model [6]; severity score 0-5", "result": 2.1}, {"measurement": "Kidney: mineralization, renal pelvis, group average score", "setting": "Zucker FA/FA Rat Model [6]; severity score 0-5", "result": 0.2}, {"measurement": "Liver: cystic hepatocytes degeneration with fibrosis, group average score", "setting": "Zucker FA/FA Rat Model [6]; severity score 0-5", "result": 0.1}, {"measurement": "Liver: hepatic focal infarction, group average score", "setting": "Zucker FA/FA Rat Model [6]; severity score 0-5", "result": 0.2}, {"measurement": "Liver: vacuolation, hepatocytes, macrovesicular, group average score", "setting": "Zucker FA/FA Rat Model [6]; severity score 0-5", "result": 0.9}, {"measurement": "Liver: vacuolation, hepatocytes, microvesicular, group average score", "setting": "Zucker FA/FA Rat Model [6]; severity score 0-5", "result": 2.6}, {"measurement": "Pancreas: fibrosis, islets, group average score", "setting": "Zucker FA/FA Rat Model [6]; severity score 0-5", "result": 2.1}, {"measurement": "Pancreas: hemorrhage/hemosiderin, islets, group average score", "setting": "Zucker FA/FA Rat Model [6]; severity score 0-5", "result": 1.1}, {"measurement": "Pancreas: hypertrophy, islets, group average score", "setting": "Zucker FA/FA Rat Model [6]; severity score 0-5", "result": 3.8}, {"measurement": "Pancreas: islet cell degeneration, group average score", "setting": "Zucker FA/FA Rat Model [6]; severity score 0-5", "result": 1.4}, {"measurement": "Pancreas: mononuclear cell infiltrate, islets, group average score", "setting": "Zucker FA/FA Rat Model [6]; severity score 0-5", "result": 1.0}, {"measurement": "Serum ALT/SGPT (terminal)", "setting": "Zucker FA/FA Rat Model [7]; [11]", "result": "tended to decrease ALT activity"}, {"measurement": "Serum albumin (terminal)", "setting": "Zucker FA/FA Rat Model [7]; [11]", "result": "did not increase albumin concentrations"}, {"measurement": "Serum alkaline phosphatase (terminal)", "setting": "Zucker FA/FA Rat Model [7]; [11]", "result": "significantly reduced alkaline phosphatase activity"}, {"measurement": "total serum protein (terminal)", "setting": "Zucker FA/FA Rat Model [7]; [11]", "result": "did not increase total protein concentrations"}, {"measurement": "blood urea nitrogen (terminal)", "setting": "Zucker FA/FA Rat Model [7]; [10]", "result": "tended to decrease BUN"}, {"measurement": "Calcium", "setting": "Zucker FA/FA Rat Model [7]; terminal blood sample, week 7", "result": "11.2 ± 0.2", "unit": "mg/dL"}, {"measurement": "Creatine kinase", "setting": "Zucker FA/FA Rat Model [7]; terminal blood sample, week 7", "result": "76.3 ± 12.8", "unit": "IU/L"}, {"measurement": "Phosphorus", "setting": "Zucker FA/FA Rat Model [7]; terminal blood sample, week 7", "result": "6.0 ± 0.2", "unit": "mg/dL"}, {"measurement": "16 h fasted blood glucose", "setting": "Zucker FA/FA Rat Model [8]; Baseline", "result": "98.4 ± 5.4", "unit": "mg/dL"}, {"measurement": "Non-fasted blood glucose", "setting": "Zucker FA/FA Rat Model [8]; Baseline", "result": "231.8 ± 31.2", "unit": "mg/dL"}, {"measurement": "16 h fasted blood glucose", "setting": "Zucker FA/FA Rat Model [8]; Week 6", "result": "331.1 ± 16.4", "unit": "mg/dL"}, {"measurement": "Non-fasted blood glucose", "setting": "Zucker FA/FA Rat Model [8]; Week 6", "result": "500.9 ± 17.4", "unit": "mg/dL"}]}
{"smiles": "N[C@@H](CC(=O)N1CCn2c(nnc2C(F)(F)F)C1)Cc1cc(F)c(F)cc1F", "note": "[Sitagliptin phosphate monohydrate, 7-[(3R)-3-amino-1-oxo-4-(2,4,5-trifluorophenyl)buty]-5,6,7,8-tetrahydro-3-(trifluoromethyl)-1,2,4-triazolo[4,3-a]pyrazine phosphate (1:1) monohydrate]", "values": [{"measurement": "Solubility in water", "setting": "[9]", "result": "soluble in water"}]}
